From patent publication US10124004B2, “Pyrido[3,4-d]pyrimidine derivative and pharmaceutically acceptable salt thereof” (Teijin Pharma Limited, priority 2015, dated 2018)

Tests used:
CDK4/cyclin D3 = biological target: T1, CDK4/cyclin D3 (Homo sapiens, UniProt P11802); test: Human CDK4/cyclin D3 inhibitory activity (QS S Assist CDK4/Cyclin D3_FP Kit, IMAP fluorescence polarization); type: biochemical; conditions: 50% inhibitory concentration against CDK4/cyclin D3, given as class symbol
T1 construct: purchased Carna Biosciences, Inc. QS S Assist CDK4/Cyclin D3_FP Kit
In short: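 IMAP fluorescence polarization kit: CDK4/cyclin D3 at 12.5-25 ng/well with kit ATP/substrate/metal mix in 20 mM HEPES pH 7.4, 0.01% Tween20, 2 mM DTT, 45 min at room temperature. FP read at 485/535 nm after 30 min binding; IC50 from dose-response fit of percent inhibition versus enzyme and no-enzyme controls.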

CDK2/cyclin A2 = biological target: T2, CDK2/cyclin A2 (Homo sapiens, UniProt P24941); test: Human CDK2/cyclin A2 inhibitory activity (QS S Assist CDK2/Cyclin A2_FP Kit, IMAP fluorescence polarization); type: biochemical; conditions: 50% inhibitory concentration against CDK2/cyclin A2, given as class symbol
T2 construct: purchased Carna Biosciences, Inc. QS S Assist CDK2/Cyclin A2_FP Kit
In short: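 Kinase activity read as fluorescence polarization (485/535 nm) after phosphorylated fluorescent substrate binds IMAP reagent (30 min, RT, dark). Enzyme (2.5 ng/well) reacted 60 min at RT with ATP/substrate/metal in HEPES pH 7.4 buffer with Tween 20 and DTT; no-enzyme wells define 0% activity; IC50 by curve fit.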

T1 sequence (P11802 whole entry): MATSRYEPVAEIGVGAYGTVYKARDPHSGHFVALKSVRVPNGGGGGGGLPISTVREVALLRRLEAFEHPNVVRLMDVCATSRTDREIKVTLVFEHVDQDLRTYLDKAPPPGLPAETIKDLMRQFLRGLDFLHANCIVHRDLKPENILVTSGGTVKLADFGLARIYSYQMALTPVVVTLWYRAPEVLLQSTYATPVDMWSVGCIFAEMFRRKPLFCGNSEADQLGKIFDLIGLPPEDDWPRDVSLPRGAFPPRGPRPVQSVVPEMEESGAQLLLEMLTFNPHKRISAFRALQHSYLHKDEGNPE
T1 sequence (P30281 whole entry partner): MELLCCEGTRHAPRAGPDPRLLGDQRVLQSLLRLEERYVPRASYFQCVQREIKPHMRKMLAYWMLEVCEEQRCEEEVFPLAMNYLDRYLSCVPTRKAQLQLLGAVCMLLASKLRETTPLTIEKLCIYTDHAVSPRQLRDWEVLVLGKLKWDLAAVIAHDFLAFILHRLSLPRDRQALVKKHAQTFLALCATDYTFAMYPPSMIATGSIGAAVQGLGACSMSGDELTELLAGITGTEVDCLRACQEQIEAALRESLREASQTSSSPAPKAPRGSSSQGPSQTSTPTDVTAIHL

| Compound | IC50 (CDK4/cyclin D3) | IC50 (CDK2/cyclin A2) |
| --- | --- | --- |
| CC(C)Nc1nc(C2CCOC2)cc2cnc(Nc3ccc(N4CCN(CC(=O)O)CC4C(F)(F)F)cn3)nc12 (stereo not shown) [Compound 889] | 10 to 100 nM | ≥ 100 nM |
| CC(C)Nc1nc(C2(C)COC2)cc2cnc(Nc3ccc(N4CCN(CC(=O)O)CC4C(F)(F)F)cn3)nc12 (stereo not shown) [Compound 890] | 10 to 100 nM | ≥ 100 nM |
| CO[C@H](C)c1cc2cnc(Nc3ccc(N4CCN(CC(=O)O)CC4C(F)(F)F)cn3)nc2c(NC(C)C)n1 (stereo partly shown) [Compound 891] | 10 to 100 nM | ≥ 100 nM |
| CC(C)Nc1nc([C@@H](C)O)cc2cnc(Nc3ccc(N4CCN(CC(=O)O)CC4C(F)(F)F)cn3)nc12 (stereo partly shown) [Compound 892] | 10 to 100 nM | ≥ 100 nM |
| CO[C@H](C)c1cc2cnc(Nc3ccc(N4CCCC(C(=O)O)C4)cn3)nc2c(NC(C)C)n1 (stereo partly shown) [Compound 893] | 10 to 100 nM | ≥ 100 nM |
| CO[C@H](C)c1cc2cnc(Nc3ccc(N4CCN(CC(=O)O)CC4=O)cn3)nc2c(NC(C)C)n1 [Compound 894] | 10 to 100 nM | ≥ 100 nM |
| CO[C@H](C)c1cc2cnc(Nc3ccc(N4CCN(C(C)C(=O)O)CC4=O)cn3)nc2c(NC(C)C)n1 (stereo partly shown) [Compound 897] | 10 to 100 nM | ≥ 100 nM |
| CO[C@H](C)c1cc2cnc(Nc3ccc(N4CCN(CC#N)CC4)nn3)nc2c(NC(C)C)n1 [Compound 906] | 10 to 100 nM | ≥ 100 nM |
| CCCNc1nc(C(C)=O)cc2cnc(Nc3ccc(CN4CCNCC4)cn3)nc12 [Compound 910] | 10 to 100 nM | ≥ 100 nM |
| CO[C@H](C)c1cc2cnc(Nc3ccc(CN4CCN(CCO)CC4)cn3)nc2c(NCC2CCOCC2)n1 [Compound 918] | < 10 nM | ≥ 100 nM |
| CCNc1nc([C@@H](C)OC)cc2cnc(Nc3ccc(N4CCNCC4)cn3)nc12 [Compound 919] | < 10 nM | ≥ 100 nM |
| CCCNc1nc([C@@H](C)OC)cc2cnc(Nc3ccc(N4CCNCC4)cn3)nc12 [Compound 920] | < 10 nM | ≥ 100 nM |
| CCCNc1nc([C@@H](C)O)cc2cnc(Nc3ccc(N4CCNCC4)cn3)nc12 [Compound 921] | < 10 nM | ≥ 100 nM |
| CCCCNc1nc([C@@H](C)O)cc2cnc(Nc3ccc(N4CCNCC4)cn3)nc12 [Compound 922] | < 10 nM | ≥ 100 nM |
| CC(C)Nc1nc([C@@H](C)O)cc2cnc(Nc3ccc(N4CC(C)(C)NCC4=O)cn3)nc12 [Compound 923] | < 10 nM | ≥ 100 nM |
| Cc1nc(Nc2ncc3cc([C@@H](C)O)nc(NC(C)C)c3n2)ccc1N1CCNCC1 [Compound 924] | < 10 nM | ≥ 100 nM |

| Compound | IC50 (CDK4/cyclin D3) | IC50 (CDK2/cyclin A2) |
| --- | --- | --- |
| CO[C@H](C)c1cc2cnc(Nc3ccc(N4CCNCC4)c(C)n3)nc2c(NC(C)C)n1 [Compound 925] | < 10 nM | ≥ 100 nM |
| CC(C)Nc1nc([C@@H](C)O)cc2cnc(Nc3ccc(N4CCC(O)CC4=O)cn3)nc12 (stereo partly shown) [Compound 926] | < 10 nM | ≥ 100 nM |
| CO[C@H](C)c1cc2cnc(Nc3ccc(OC4CCNCC4)cn3)nc2c(NCC2CCOCC2)n1 [Compound 927] | < 10 nM | ≥ 100 nM |
| CO[C@H](C)c1cc2cnc(Nc3ccc(CN4CCNCC4)cn3)nc2c(NC(C)C2CCOCC2)n1 (stereo partly shown) [Compound 928] | < 10 nM | ≥ 100 nM |
| CNCCN1CCc2nc(Nc3ncc4cc([C@@H](C)O)nc(NC(C)C)c4n3)ccc2C1 [Compound 930] | < 10 nM | ≥ 100 nM |
| CC(C)Nc1nc([C@@H](C)O)cc2cnc(Nc3ccc4c(n3)CCN(C(=O)[C@@H](N)C(C)C)C4)nc12 [Compound 931] | < 10 nM | ≥ 100 nM |
| CC(C)Nc1nc([C@@H](C)O)cc2cnc(Nc3ccc4c(n3)CCN(C(=O)C3CCNCC3)C4)nc12 [Compound 932] | < 10 nM | ≥ 100 nM |
| CNC(=O)N1CCc2nc(Nc3ncc4cc([C@@H](C)O)nc(NC(C)C)c4n3)ccc2C1 [Compound 933] | < 10 nM | ≥ 100 nM |
| CC(C)Nc1nc([C@@H](C)O)cc2cnc(Nc3ccc4c(n3)CCN(S(C)(=O)=O)C4)nc12 [Compound 934] | < 10 nM | ≥ 100 nM |
| CC(C)Nc1nc([C@@H](C)O)cc2cnc(Nc3ccc4c(n3)CCN(S(=O)(=O)N(C)C)C4)nc12 [Compound 935] | 10 to 100 nM | ≥ 100 nM |
| CC(C)Nc1nc([C@@H](C)O)cc2cnc(Nc3ccc(N4CCN(C(C)C#N)CC4=O)cn3)nc12 (stereo partly shown) [Compound 936] | < 10 nM | ≥ 100 nM |
| CC(C)Nc1nc([C@@H](C)O)cc2cnc(Nc3ccc(N4CCN(CC(N)=O)CC4)nn3)nc12 [Compound 937] | < 10 nM | ≥ 100 nM |
| CCCNc1nc([C@@H](C)O)cc2cnc(Nc3ccc4c(n3)CCNC4)nc12 [Compound 944] | < 10 nM | ≥ 100 nM |
| CCCNc1nc(C2(C)COC2)cc2cnc(Nc3ccc(N4CCNCC4)nn3)nc12 [Compound 945] | < 10 nM | ≥ 100 nM |
| CCCNc1nc(C2CCOC2)cc2cnc(Nc3ccc(N4CCNCC4)nn3)nc12 (stereo not shown) [Compound 946] | < 10 nM | ≥ 100 nM |

Results, then the compound that gave them:

| IC50 (CDK4/cyclin D3) | IC50 (CDK2/cyclin A2) | Compound |
| --- | --- | --- |
| < 10 nM | ≥ 100 nM | c1cc(N2CCNCC2)nnc1Nc1ncc2cc(C3CCOC3)nc(N[C@H]3CCCOC3)c2n1 (stereo partly shown) [Compound 878] |
| < 10 nM | ≥ 100 nM | CC1(c2cc3cnc(Nc4ccc(N5CCNCC5)nn4)nc3c(N[C@H]3CCCOC3)n2)COC1 [Compound 880] |
| < 10 nM | ≥ 100 nM | CC(C)Nc1nc(C2CCOC2)cc2cnc(Nc3ccc(CN4CCNCC4)cn3)nc12 (stereo not shown) [Compound 881] |
| < 10 nM | ≥ 100 nM | c1cc(Nc2ncc3cc(C4CCOC4)nc(N[C@H]4CCCOC4)c3n2)ncc1CN1CCNCC1 (stereo partly shown) [Compound 882] |
| < 10 nM | ≥ 100 nM | CC1(c2cc3cnc(Nc4ccc(CN5CCNCC5)cn4)nc3c(N[C@H]3CCCOC3)n2)COC1 [Compound 884] |
| < 10 nM | ≥ 100 nM | CC(C)Nc1nc(C2CCOC2)cc2cnc(Nc3ccc4c(n3)CCNC4)nc12 (stereo not shown) [Compound 885] |
| < 10 nM | ≥ 100 nM | c1cc2c(nc1Nc1ncc3cc(C4CCOC4)nc(N[C@H]4CCCOC4)c3n1)CCNC2 (stereo partly shown) [Compound 886] |
| < 10 nM | ≥ 100 nM | CC(C)Nc1nc(C2(C)COC2)cc2cnc(Nc3ccc4c(n3)CCNC4)nc12 [Compound 887] |
| < 10 nM | ≥ 100 nM | CC1(c2cc3cnc(Nc4ccc5c(n4)CCNC5)nc3c(N[C@H]3CCCOC3)n2)COC1 [Compound 888] |
| < 10 nM | ≥ 100 nM | CC(C)Nc1nc([C@@H](C)O)cc2cnc(Nc3ccc(N4CCN(C(C)C(=O)O)CC4=O)cn3)nc12 (stereo partly shown) [Compound 895] |
| < 10 nM | ≥ 100 nM | CC(C)Nc1nc([C@@H](C)O)cc2cnc(Nc3ccc(N4CCNC(C(F)(F)F)C4)nn3)nc12 (stereo partly shown) [Compound 896] |
| < 10 nM | ≥ 100 nM | CC(C)Nc1nc([C@@H](C)O)cc2cnc(Nc3ccc(N4CCn5ccnc5C4)nn3)nc12 [Compound 898] |
| < 10 nM | ≥ 100 nM | CC(C)Nc1nc([C@@H](C)O)cc2cnc(Nc3ccc(N4CCN(CC#N)CC4=O)cn3)nc12 [Compound 899] |
| < 10 nM | ≥ 100 nM | CC(C)Nc1nc([C@@H](C)O)cc2cnc(Nc3ccc(N4CCN(CC(N)=O)CC4=O)cn3)nc12 [Compound 900] |
| < 10 nM | ≥ 100 nM | CC(C)Nc1nc([C@@H](C)O)cc2cnc(Nc3ccc(N4CCN(CC#N)CC4)nn3)nc12 [Compound 901] |
| < 10 nM | ≥ 100 nM | CC(C)Nc1nc([C@@H](C)O)cc2cnc(Nc3ccc(N4CCN(C(C)C#N)CC4)nn3)nc12 (stereo partly shown) [Compound 902] |
| < 10 nM | 10 to 100 nM | C[C@@H](O)c1cc2cnc(Nc3ccc(N4CCNCC4=O)cn3)nc2c(NC2(C)CCCOC2)n1 (stereo partly shown) [Compound 903] |
| < 10 nM | ≥ 100 nM | CC(C)Nc1nc([C@@H](C)O)cc2cnc(Nc3ccc4c(n3)CCN(C(=O)CN(C)C)C4)nc12 [Compound 905] |
| < 10 nM | ≥ 100 nM | CO[C@H](C)c1cc2cnc(Nc3ccc(N4CCN(C(C)C#N)CC4)nn3)nc2c(NC(C)C)n1 (stereo partly shown) [Compound 907] |
| < 10 nM | ≥ 100 nM | CO[C@H](C)c1cc2cnc(Nc3ccc(N4CCN(CC(N)=O)CC4)nn3)nc2c(NC(C)C)n1 [Compound 908] |
| < 10 nM | ≥ 100 nM | CC(=O)c1cc2cnc(Nc3ccc(N4CCNCC4)nn3)nc2c(NC(C)(C)C)n1 [Compound 909] |
| < 10 nM | ≥ 100 nM | CCCCNc1nc(C(C)=O)cc2cnc(Nc3ccc(CN4CCNCC4)cn3)nc12 [Compound 911] |
| < 10 nM | ≥ 100 nM | CC(=O)c1cc2cnc(Nc3ccc(CN4CCNCC4)cn3)nc2c(NCC(C)C)n1 [Compound 912] |
| < 10 nM | ≥ 100 nM | CO[C@H](C)c1cc2cnc(Nc3ccc(CN4CCN(CCO)CC4)cn3)nc2c(NC(C)(C)CO)n1 [Compound 913] |
| < 10 nM | ≥ 100 nM | CO[C@H](C)c1cc2cnc(Nc3ccc(CN4CCN(CCO)CC4)cn3)nc2c(N[C@H](C)CO)n1 [Compound 914] |
| < 10 nM | ≥ 100 nM | CO[C@H](C)c1cc2cnc(Nc3ccc(CN4CCN(CCO)CC4)cn3)nc2c(N[C@@H](C)CO)n1 [Compound 915] |
| < 10 nM | ≥ 100 nM | COC[C@@H](C)Nc1nc([C@@H](C)OC)cc2cnc(Nc3ccc(CN4CCN(CCO)CC4)cn3)nc12 [Compound 916] |
| < 10 nM | ≥ 100 nM | CO[C@H](C)c1cc2cnc(Nc3ccc(CN4CCN(CCO)CC4)cn3)nc2c(N[C@H]2CC[C@H](O)CC2)n1 [Compound 917] |
